From patent US12011455B2, “Enhancing plasmin activity to prevent soft tissue calcification” (Vanderbilt University, priority 2016, dated 2024)

Test system: CTX-injured skeletal muscle of mice
Experiment: Cardiotoxin-induced muscle injury model, radiographic/μCT soft tissue calcification and HO
Type: in vivo, mouse
Details: Plg+/− mice, 7 DPI, vs control
Procedure: Cardiotoxin-Induced Muscle Injury Model: Skeletal muscle injury was induced by an intramuscular injection of 40 μL of 10 nM Cardiotoxin (CTX, Accurate Chemical and Scientific Corp; Westbury, NY) in the posterior compartments of the lower extremities of male C57/B6 mice. Briefly, following anesthetization with Isoflurane, CTX was injected into the lateral aspect of the posterior compartment using a 28.5 G, 0.5 cc insulin syringe. The CTX induces massive local myocyte depolarization, leading to myocyte death. However, muscle resident stem cells are unaffected by the CTX, thereby allowing for muscle regeneration following injury. […]
Radiographic Analysis and Quantification of HO: Quantification was performed as described. […] These images underwent post-image standardization and were quantified with the previously validated heterotopic ossification scoring scale. […] A blinded reviewer assessed all scores (a score of 1=0-24%, a score of 2=25%-49%, a score of 3=50%-74%, and a score of 4=>75% of the lower extremity containing radiographically evident HO).
Ex vivo μCT Imaging and Quantification of HO: μCT mages were acquired (μCT40, Scanco Medical AG, Bassersdorf, Switzerland) following specimen harvest of injured hindlimbs at 55 kVp, 145 uA, 200 ms integration, 500 projections per 180° rotation, with a 20 μm isotropic voxel size. […] Mineral volume was then calculated using the Scanco evaluation software.

Fbg^ASO: Fibrinogen antisense oligonucleotide GCTTTGATCAGTTCTTTGGC; phosphorothioate backbone, 2′ O methoxyethyl wings (all phosphorothioate, sugars by position and methylation of C not given here; 2'-O-methoxyethyl wings)
soft tissue calcification after CTX injury (μCT/radiographs): failed to prevent soft tissue calcification
soft tissue calcification after CTX injury (μCT/radiographs) (listed as fibrinogen^ASO): marked soft tissue calcification formation
